Assay results taken from patent US20240309003A1, “HETEROCYCLIC COMPOUNDS AS TRIGGERING RECEPTOR EXPRESSED ON MYELOID CELLS 2 AGONISTS AND METHODS OF USE” (Vigil Neuroscience, Inc., priority 2021, published 2024).

biological target: T1, human TREM2 (Homo sapiens, UniProt Q9NZC2); experiment: TREM2 agonist potency by cellular phosphorylation of Syk (AlphaLisa) in HEK293T-hTREM2 cells; type: cell-based; conditions: HEK293 cells expressing human TREM2 and DAP12, Table D
T1 construct: expressed in transfected cells; host or cells: HEK293T
T1 sequence (Q9NZC2 19-230): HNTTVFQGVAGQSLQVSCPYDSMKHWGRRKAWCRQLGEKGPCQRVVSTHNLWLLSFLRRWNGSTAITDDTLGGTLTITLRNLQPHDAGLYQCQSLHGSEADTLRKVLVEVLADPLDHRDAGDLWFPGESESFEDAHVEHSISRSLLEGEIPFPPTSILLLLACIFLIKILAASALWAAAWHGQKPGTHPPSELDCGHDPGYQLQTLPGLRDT
T1 sequence (O43914 22-113 partner): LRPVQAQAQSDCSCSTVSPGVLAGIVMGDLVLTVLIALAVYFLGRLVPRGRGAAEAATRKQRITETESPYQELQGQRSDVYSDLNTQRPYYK
In short: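 Agonist EC50 from a variable-slope four-parameter fit of % activation, based on AlphaLisa phospho-Syk levels in lysates. Cells: HEK293T-hTREM2 (with DAP12), treated 45 min at room temperature with compound in assay buffer.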

SMILES | EC50 [µM]
Cc1nc2nc(N3CCO[C@H](c4cc[nH]c(=O)c4)C3)nc(C34CC(C(F)(F)F)(C3)C4)c2nc1C [Example 199, (R)-4-(4-(6,7-dimethyl-4-(3-(trifluoromethyl)bicyclo[1.1.1]pentan-1-yl)pteridin-2-yl)morpholin-2-yl)pyridin-2(1H)-one] | 0.05 to 0.5
[2H][C@]1(c2cnn(C3CC3)c2)C[C@@H](c2nc(-c3ccc(F)cc3F)c3nc(C)c(C)nc3n2)CCO1 [Example 182, 2-((2R,4S)-2-(1-cyclopropyl-1H-pyrazol-4-yl)tetrahydro-2H-pyran-4-yl-2-d)-4-(2,4-difluorophenyl)-6,7-dimethylpteridine] | < 0.05
COc1ncccc1[C@H]1C[C@@H](c2nc(-c3ccc(F)cc3F)c3nc(C)c(C)nc3n2)CCO1 [Example 161, 4-(2,4-difluorophenyl)-2-((2R,4S)-2-(2-methoxypyridin-3-yl)tetrahydro-2H-pyran-4-yl)-6,7-dimethylpteridine] | 0.05 to 0.5
[2H]C1([2H])C[C@@H](c2nc(-c3ccc(F)cc3F)c3nc(C)c(C)nc3n2)C[C@@]([2H])(c2cnn(C3CC3)c2)O1 (single isomer, unassigned) [Example 191] | 3 to 100
Cc1cc([C@H]2C[C@@H](c3nc(-c4ccc(C(F)(F)F)nc4)c4nc(C)c(C)nc4n3)CCO2)ccn1 (racemic) [Example 4, 6,7-dimethyl-2-((2R,4S)-2-(2-methylpyridin-4-yl)tetrahydro-2H-pyran-4-yl)-4-(6-(trifluoromethyl)pyridin-3-yl)pteridine] | 0.05 to 0.5
Cc1nc2nc(N3CCOC(c4cc[nH]c(=O)c4)C3)nc(-c3ccc(C(F)(F)F)nc3)c2nc1C (stereo not shown) [Example 194, 4-(4-(6,7-dimethyl-4-(6-(trifluoromethyl)pyridin-3-yl)pteridin-2-yl)morpholin-2-yl)pyridin-2(1H)-one] | < 0.05
Cc1nc2nc([C@H]3CCO[C@@H](c4ccc(=O)n(C)c4)C3)nc(-c3ccc(F)cc3F)c2nc1C [Example 201] | 0.5 to 3
Cc1nc2nc([C@@H]3CCO[C@H](c4cnn(C5CC(F)C5)c4)C3)nc(C34CC(C(F)(F)F)(C3)C4)c2nc1C (stereo in doubt) [Example 134, 2-((2S,4R)-2-(1-(3-fluorocyclobutyl)-1H-pyrazol-4-yl)tetrahydro-2H-pyran-4-yl)-6,7-dimethyl-4-(3-(trifluoromethyl)bicyclo[1.1.1]pentan-1-yl)pteridine] | < 0.05
Cc1cc([C@H]2C[C@@H](c3cc(-c4ccc(Cl)cc4F)c4cc(C)c(C)nc4n3)CCO2)ccn1 [Example 184, 5-(4-chloro-2-fluorophenyl)-2,3-dimethyl-7-((2R,4S)-2-(2-methylpyridin-4-yl)tetrahydro-2H-pyran-4-yl)-1,8-naphthyridine] | < 0.05
Cc1ccc2c(C34CC(C(F)(F)F)(C3)C4)nc([C@H]3C[C@@H](C)O[C@@H](c4cnn(C5CC5)c4)C3)nc2n1 [Example 220, 2-((2R,4S,6R)-2-(1-cyclopropyl-1H-pyrazol-4-yl)-6-methyltetrahydro-2H-pyran-4-yl)-7-methyl-4-(3-(trifluoromethyl)bicyclo[1.1.1]pentan-1-yl)pyrido[2,3-d]pyrimidine] | 0.5 to 3
COc1cccc([C@H]2C[C@@H](c3nc(C45CC(C(F)(F)F)(C4)C5)c4nc(C)c(C)nc4n3)CCO2)n1 [Example 146, 2-[ (2R,4S)-2-(6-methoxy-2-pyridyl)tetrahydropyran-4-yl] - 6,7-dimethyl-4-[3-(trifluoromethyl)-1-bicyclo[1.1.1]pentanyl]pteridine] | 0.05 to 0.5
Cc1nc2nc([C@@H]3CCO[C@H](c4cnn(C5CC5)c4)C3)nc(-c3ccc(C(F)(F)F)cc3)c2nc1C [Example 138, 2-((2S,4R)-2-(1-cyclopropyl-1H-pyrazol-4-yl)tetrahydro-2H-pyran-4-yl)-6,7-dimethyl-4-(4-(trifluoromethyl)phenyl)pteridine] | 0.05 to 0.5
Cc1cnc2c(-c3ccc(Cl)cc3F)nc(N3C[C@@H](C)O[C@@H](c4cnn(C5CC5)c4)C3)nc2n1 (racemic) [Example 70, 4-(4-(4-chloro-2-fluorophenyl)-7-methylpteridin-2-yl)-2-(1-cyclopropyl-1H-pyrazol-4-yl)-6-methylmorpholine] | < 0.05
COc1ccc([C@@H]2C[C@H](c3nc(-c4ccc(F)cc4F)c4nc(C)c(C)nc4n3)CCO2)cn1 [Example 162, 4-(2,4-difluorophenyl)-2-((2S,4R)-2-(6-methoxypyridin-3-yl)tetrahydro-2H-pyran-4-yl)-6,7-dimethylpteridine] | 0.05 to 0.5
[2H]C([2H])([2H])c1nc2nc([C@@H]3CCO[C@H](c4ccnc(C)c4)C3)nc(-c3ccc(Cl)c(F)c3F)c2nc1C([2H])([2H])[2H] [Example 136, 4-(4-chloro-2,3-difluorophenyl)-6,7-bis(methyl-d3)-2-((2S,4R)-2-(2-methylpyridin-4-yl)tetrahydro-2H-pyran-4-yl)pteridine] | < 0.05

same assay, conditions: HEK293 cells expressing human TREM2 and DAP12, Table D-2

SMILES | EC50 [µM]
Cc1nc2cc([C@H]3CCO[C@@H](c4cnn(C5CC5)c4)C3)nc(-c3ccc(F)cc3F)c2nc1CF [Example I-1456, 7-((2R,4S)-2-(1-cyclopropyl-1H-pyrazol-4-yl)tetrahydro-2H-pyran-4-yl)-5-(2,4-difluorophenyl)-3-(fluoromethyl)-2-methylpyrido[3,4-b]pyrazine] | < 0.05
CCCc1nc2nc(N3C[C@@H](C)O[C@@H](c4cnn(C5CC5)c4)C3)nc(-c3ccc(F)cc3F)c2nc1C (single isomer, unassigned) [Example I-1288] | < 0.05
COC1(c2nc(-c3ccc(Cl)cc3F)c3nc(C)c(C)nc3n2)CCO[C@@H](c2cnn(C3CC3)c2)C1 (stereo partly drawn) [Example I-1210, 4-(4-chloro-2-fluorophenyl)-2-((2R)-2-(1-cyclopropyl-1H-pyrazol-4-yl)-4-methoxytetrahydro-2H-pyran-4-yl)-6,7-dimethylpteridine] | 0.5 to 3
Cc1nc2nc([C@H]3CCO[C@@H](c4cnn(C5CC5)c4)C3)nc(-c3ccc(F)cc3F)c2nc1C1CCCCC1 [Example I-1744, 6-cyclohexyl-2-((2R,4S)-2-(1-cyclopropyl-1H-pyrazol-4-yl)tetrahydro-2H-pyran-4-yl)-4-(2,4-difluorophenyl)-7-methylpteridine] | 0.05 to 0.5
Cc1nc2cc([C@H]3CCO[C@@H](c4cnn(C5CC5)c4)C3)nc(-c3ccc(F)cc3F)c2nc1C(F)F [Example I-1552, 7-((2R,4S)-2-(1-cyclopropyl-1H-pyrazol-4-yl)tetrahydro-2H-pyran-4-yl)-3-(difluoromethyl)-5-(2,4-difluorophenyl)-2-methylpyrido[3,4-b]pyrazine] | < 0.05
Cc1nc2nc([C@H]3CCO[C@@H](c4cnn(C5CC5)c4)C3)nc(-c3ccc(Cl)cc3F)c2nc1OCCF [Example I-1283, 4-(4-chloro-2-fluoro-phenyl)-2-[(2R,4S)-2-(1-cyclopropylpyrazol-4-yl)tetrahydropyran-4-yl]-6-(2-fluoroethoxy)-7-methyl-pteridine] | < 0.05
Cc1nc2nc(N3C[C@@H](C4CC4)O[C@@H](c4cnn(C(F)F)c4)C3)nc(-c3ccc(C(F)(F)F)cc3F)c2nc1C [Example I-1711, (2R,6S)-2-cyclopropyl-6-[1-(difluoromethyl)pyrazol-4-yl]-4-[4-[2-fluoro-4-(trifluoromethyl)phenyl]-6,7-dimethyl-pteridin-2-yl]morpholine] | < 0.05
COc1nc2c(-c3ccc(F)cc3F)nc([C@@H]3CCO[C@H](c4cnn(C5CC5)c4)C3)nc2nc1C (racemic) [Example I-1653, 4-(2,4-difluorophenyl)-6-methoxy-7-methyl-2-[rac-(2R,4S)-2-(1-cyclopropylpyrazol-4-yl)tetrahydropyran-4-yl]pteridine] | < 0.05
Cc1cc([C@@H]2CN(c3nc(-c4ccc(Cl)cc4F)c4nc(C)c(C)nc4n3)CCO2)no1 [Example I-1270, 4-[4-(4-chloro-2-fluoro-phenyl)-6,7-dimethyl-pteridin-2-yl]-2-(5-methylisoxazol-3-yl)morpholine] | 0.05 to 0.5
Cc1nc2nc([C@H]3CCO[C@@H](c4cnn(C5CC5)c4)C3)nc(-c3ccc(C(C)C)cc3F)c2nc1C [Example I-1192] | 0.5 to 3
Cc1nc2nc([C@H]3CCO[C@@H](c4cnn(CC5CC5)c4)C3)nc(-c3ccc(C(F)(F)F)cc3F)c2nc1C [Example I-1577, 2-[(2R,4S)-2-[1-(cyclopropylmethyl)pyrazol-4-yl]tetrahydropyran-4-yl]-4-[2-fluoro-4-(trifluoromethyl)phenyl]-6,7-dimethyl-pteridine] | < 0.05
Cc1nc2cc([C@H]3CCO[C@@H](c4cnn(C5CC5)c4)C3)nc(-c3ccc(C(F)(F)F)cc3F)c2nc1C(F)(F)F [Example I-1562] | 0.05 to 0.5
Cc1nc2nc([C@H]3CCO[C@@H](c4cnc(C5CC5)o4)C3)nc(-c3ccc(F)cc3F)c2nc1C [Example I-1699, 2-cyclopropyl-5-[(2R,4S)-4-[4-(2,4-difluorophenyl)-6,7-dimethyl-pteridin-2-yl]tetrahydropyran-2-yl]oxazole] | 0.05 to 0.5
Cc1nc2nc(C3CCS(=O)(=O)N(c4cnn(C5CC5)c4)C3)nc(-c3ccc(Cl)cc3F)c2nc1C (racemic) [Example I-1733, 4-[4-(4-chloro-2-fluoro-phenyl)-6,7-dimethyl-pteridin-2-yl]-2-(1-cyclopropylpyrazol-4-yl)thiazinane 1,1-dioxide] | 0.05 to 0.5
Cc1nc2nc(N3C[C@@H](C4CC4)O[C@@H](c4cnn(C)c4)C3)nc(-c3ccc(F)cc3F)c2nc1C [Example I-1673, (2R,6S)-2-cyclopropyl-4-[4-(2,4-difluorophenyl)-6,7-dimethyl-pteridin-2-yl]-6-(1-methylpyrazol-4-yl)morpholine] | < 0.05
Cc1nc2nc(C3CCO[C@@H](c4cnn(C5CC5)c4)C3)nc([C@H]3C[C@@H](C(F)(F)F)C3)c2nc1C (stereo partly drawn) [Example I-1414, 2-[(2R)-2-(1-cyclopropylpyrazol-4-yl)tetrahydropyran-4-yl]-6,7-dimethyl-4-[3-(trifluoromethyl)cyclobutyl]pteridine] | < 0.05
